Like-named read-outs stand apart in the source and are kept apart here.
Tests used:
[1] = test system: human SKM-1 acute myeloid leukemia cells; assay: SKM-1 antiproliferation cell-based assay (ATPlite); settings: Homo sapiens
Method in brief: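 Log-phase cells in RPMI 1640/15% FBS were seeded at 34722 cells/mL and exposed for 4 days to nine-concentration DMSO serial dilutions in triplicate. Viability was read as ATP luminescence (ATPlite 1step), and IC50 values came from variable-slope non-linear regression.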

[2] = target: T1, human BRD4 bromodomain II (Homo sapiens, UniProt O60885); assay: Bromodomain binding assay (AlphaScreen), BRD4 BDII
T1 construct: human BRD4 bromodomain II [based on Genbank NM_058243, residues 349-460]; host or cells: E. coli
Method in brief: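 E. coli-expressed N-terminal His6-tagged human BRD4 BDII (residues 349-460) or BDI (residues 44-170) was preincubated 30 min at room temperature with compound (10-point, 3-fold) in pH 7.5 HEPES buffer, 1% DMSO. Displacement of biotinylated tetra-acetylated H4 1-21 peptide was read by AlphaScreen, and IC50 came from curve fitting.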

[3] = SKM-1, SKM-1 antiproliferation assay
[4] = BRD4 BDII AlphaScreen assay, read-out: BRD4 BD2 IC50
[5] = SKM-1, 96 h, SKM-1 antiproliferation assay, 4 days, Table C2
[6] = AlphaScreen assay, Table C2, read-out: BRD4 BDII IC50

| SMILES | GI50 [1, 3] [nM] | IC50 [2, 4] [nM] | GI50 [1, 5] [nM] | IC50 [2, 6] [nM] |
| --- | --- | --- | --- | --- |
| COc1ncc(-c2cc(F)cc(-c3ccc(-n4ccn(C)c4=O)c(Cl)c3)c2O)cc1N1CCC2(CCCN2C(C)C)C1 (stereo not shown) [Example 913, 1-(3-chloro-5′-fluoro-2′-hydroxy-3′-(5-(1-isopropyl-1,7-diazaspiro[4.4]nonan-7-yl)-6-methoxypyridin-3-yl)-[1,1′-biphenyl]-4-yl)-3-methyl-1H-imidazol-2(3H)-one] | 0.3 to 30 | 0.01 to 1 |  |  |
| Cn1ccn(-c2ccc(-c3cc(F)cc(-c4cnc(C(F)F)c(N5CCN(C(C)(C)C)CC5)c4)c3O)cc2Cl)c1=O [Example 826, 1-(3′-(5-(4-(tert-butyl)piperazin-1-yl)-6-(difluoromethyl)pyridin-3-yl)-3-chloro-5′-fluoro-2′-hydroxy-[1,1′-biphenyl]-4-yl)-3-methyl-1H-imidazol-2(3H)-one] |  |  | 0.3 to 30 | 0.01 to 1 |
| [2H]C([2H])([2H])C(=O)Nc1ccc(-c2cc(C)nc(-c3cccc(N4CCN(C(C)(C)C)CC4)c3)c2O)cc1Cl [Example 1008, N-(4-(2-(3-(4-(tert-butyl)piperazin-1-yl)phenyl)-3-hydroxy-6-methylpyridin-4-yl)-2-chlorophenyl)-2,2,2-trideuteroacetamide] | 0.3 to 30 | 1 to 10 |  |  |
| Cc1ncc(-c2cc(F)cc(-c3ccc(-n4ccn(C)c4=O)c(Cl)c3)c2O)cc1N1CC(O)(CO)C1 [Example 839, 1-(3-chloro-5′-fluoro-2′-hydroxy-3′-(5-(3-hydroxy-3-(hydroxymethyl)azetidin-1-yl)-6-methylpyridin-3-yl)-[1,1′-biphenyl]-4-yl)-3-methyl-1H-imidazol-2(3H)-one] |  |  | 0.3 to 30 | 0.01 to 1 |
| Cc1cc(-c2ccc(-n3ccn(C)c3=O)c(Cl)c2)c(O)c(-c2cncc(N3CCN(C(C)(C)C)CC3)c2)n1 [Example 1004, 1-(4-(5′-(4-(tert-butyl)piperazin-1-yl)-3-hydroxy-6-methyl-[2,3′-bipyridin]-4-yl)-2-chlorophenyl)-3-methyl-1H-imidazol-2(3H)-one] | 0.3 to 30 | 1 to 10 |  |  |
| CN1CCN(c2ccc(-c3cc(F)cc(-c4cnc(-c5ccn[nH]5)c(N5CCNCC5)c4)c3O)cc2Cl)C1=O [Example 391, 1-(3-chloro-5′-fluoro-2′-hydroxy-3′-(5-(piperazin-1-yl)-6-(1H-pyrazol-5-yl)pyridin-3-yl)-[1,1′-biphenyl]-4-yl)-3-methylimidazolidin-2-one] |  |  | 30 to 300 | 1 to 10 |
| CN1CCN(c2ccc(-c3cc(F)cc(-c4cnc(CCO)c(N5CCNCC5)c4)c3O)cc2Cl)C1=O [Example 428, 1-(3-chloro-5′-fluoro-2′-hydroxy-3′-(6-(2-hydroxyethyl)-5-(piperazin-1-yl)pyridin-3-yl)-[1,1′-biphenyl]-4-yl)-3-methylimidazolidin-2-one] |  |  | 30 to 300 | 1 to 10 |
| Cn1ccn(-c2ccc(-c3cc(F)cc(-c4cc(N5CCNCC5)c5nc[nH]c5c4)c3O)cc2Cl)c1=O [Example 504, 1-(3-chloro-5′-fluoro-2′-hydroxy-3′-(4-(piperazin-1-yl)-1H-benzo[d]imidazol-6-yl)-[1,1′-biphenyl]-4-yl)-3-methyl-1H-imidazol-2(3H)-one] |  |  | 0.3 to 30 | 1 to 10 |
| COC(=O)CC1CN(c2cc(-c3cc(F)cc(-c4ccc(-n5ccn(C)c5=O)c(Cl)c4)c3O)ccn2)CCN1 (stereo not shown) [Example 679, methyl 2-(4-(4-(3′-chloro-5-fluoro-2-hydroxy-4′-(3-methyl-2-oxo-2,3-dihydro-1H-imidazol-1-yl)-[1,1′-biphenyl]-3-yl)pyridin-2-yl)piperazin-2-yl)acetate] |  |  | 30 to 300 | 1 to 10 |
| COCC(C)(C)N1CCN(c2cccc(-c3cc(F)cc(-c4ccc(-n5ccn(C)c5=O)c(Cl)c4)c3O)c2)CC1 [Example 830, 1-(3-chloro-5′-fluoro-2′-hydroxy-3″-(4-(1-methoxy-2-methylpropan-2-yl)piperazin-1-yl)-[1,1′:3′,1″-terphenyl]-4-yl)-3-methyl-1H-imidazol-2(3H)-one] |  |  | 0.3 to 30 | 1 to 10 |
| CN1CCN(c2ccc(-c3cccc(-c4cncc(N5CCNCC5)c4)c3O)cc2F)C1=O [Example 292, 1-(3-fluoro-2′-hydroxy-3′-(5-(piperazin-1-yl)pyridin-3-yl)-[1,1′-biphenyl]-4-yl)-3-methylimidazolidin-2-one] |  |  | 30 to 300 | 1 to 10 |
| CSc1ncc(-c2cc(F)cc(-c3ccc(-n4ccn(C)c4=O)c(Cl)c3)c2O)cc1N1CCN(C(C)C)CC1 [Example 817, 1-(3-chloro-5′-fluoro-2′-hydroxy-3′-(5-(4-isopropylpiperazin-1-yl)-6-(methylthio)pyridin-3-yl)-[1,1′-biphenyl]-4-yl)-3-methyl-1H-imidazol-2(3H)-one] |  |  | 0.3 to 30 | 1 to 10 |
| CC(C)CN1CCN(c2cc(-c3cc(F)cc(-c4ccc(-n5ccn(C)c5=O)c(Cl)c4)c3O)ccn2)CC1 [Example 682, 1-(3-chloro-5′-fluoro-2′-hydroxy-3′-(2-(4-isobutylpiperazin-1-yl)pyridin-4-yl)-[1,1′-biphenyl]-4-yl)-3-methyl-1H-imidazol-2(3H)-one] |  |  | 0.3 to 30 | 0.01 to 1 |
| CCN1CCN(c2cc(-c3cc(F)cc(-c4ccc(-n5ccn(C)c5=O)c(Cl)c4)c3O)cc3[nH]ncc23)CC1 [Example 582] |  |  | 0.3 to 30 | 0.01 to 1 |
| CN1CCN(c2ccc(-c3cc(F)cc(-c4ccnc(N5CCC(N)CC5)c4)c3O)cc2Cl)C1=O [Example 350, 1-(3′-(2-(4-aminopiperidin-1-yl)pyridin-4-yl)-3-chloro-5′-fluoro-2′-hydroxy-[1,1′-biphenyl]-4-yl)-3-methylimidazolidin-2-one] |  |  | 30 to 300 | 10 to 100 |
| CNc1ncc(-c2cc(F)cc(-c3ccc(-n4ccn(C)c4=O)c(Cl)c3)c2O)cc1N1CCN(C(C)(C)C)CC1 [Example 923, 1-(3′-(5-(4-(tert-Butyl)piperazin-1-yl)-6-(methylamino)pyridin-3-yl)-3-chloro-5′-fluoro-2′-hydroxy-[1,1′-biphenyl]-4-yl)-3-methyl-1H-imidazol-2(3H)-one] | 0.3 to 30 | 0.01 to 1 |  |  |
| CC(C)N1CC2CN(c3cc(-c4cc(F)cc(-c5ccc(-n6ccn(C)c6=O)c(Cl)c5)c4O)ccn3)CC21 (stereo not shown) [Example 747, 1-(3-chloro-5′-fluoro-2′-hydroxy-3′-(2-(6-isopropyl-3,6-diazabicyclo[3.2.0]heptan-3-yl)pyridin-4-yl)-[1,1′-biphenyl]-4-yl)-3-methyl-1H-imidazol-2(3H)-one] |  |  | 0.3 to 30 | 0.01 to 1 |
| CC(C)N1CCN(c2cc(-c3cc(F)cc(-c4ccc(-n5ccn(C)c5=O)c(Cl)c4)c3O)cnc2OC(F)F)CC1 [Example 824, 1-(3-chloro-3′-(6-(difluoromethoxy)-5-(4-isopropylpiperazin-1-yl)pyridin-3-yl)-5′-fluoro-2′-hydroxy-[1,1′-biphenyl]-4-yl)-3-methyl-1H-imidazol-2(3H)-one] |  |  | 0.3 to 30 | 1 to 10 |
| CN1CCN(c2ccc(-c3cccc(-c4ccc5[nH]c6c(c5c4)CNCC6)c3O)cc2Cl)C1=O [Example 369, 1-(3-chloro-2′-hydroxy-3′-(2,3,4,5-tetrahydro-1H-pyrido[4,3-b]indol-8-yl)-[1,1′-biphenyl]-4-yl)-3-methylimidazolidin-2-one] |  |  | ≥ 3000 | 10 to 100 |
| C[C@@H]1CN(c2cc(-c3cc(F)cc(-c4ccc(-n5ccn(C)c5=O)c(Cl)c4)c3O)cc3[nH]ncc23)C[C@H](C)N1 [Example 577] |  |  | 0.3 to 30 | 0.01 to 1 |
| CNCc1n[nH]c2ccc(-c3cc(F)cc(-c4ccc(-n5ccn(C)c5=O)c(Cl)c4)c3O)cc12 [Example 494, 1-(3-chloro-5′-fluoro-2′-hydroxy-3′-(3-((methylamino)methyl)-1H-indazol-5-yl)-[1,1′-biphenyl]-4-yl)-3-methyl-1H-imidazol-2(3H)-one] |  |  | 30 to 300 | 1 to 10 |
| O=C1NCCCN1c1ccc(-c2cc(F)cc(-c3ccnc(N4CCNCC4)c3)c2O)cc1Cl [Example 287, 1-(3-chloro-5′-fluoro-2′-hydroxy-3′-(2-(piperazin-1-yl)pyridin-4-yl)-[1,1′-biphenyl]-4-yl)tetrahydropyrimidin-2(1H)-one] |  |  | 300 to 3000 | > 100 |
| Cn1ccn(-c2ccc(-c3cc(F)cc(-c4ccnc(N5CCC6(CCO6)C5)c4)c3O)cc2Cl)c1=O (stereo not shown) [Example 674, 1-(3′-(2-(1-oxa-6-azaspiro[3.4]octan-6-yl)pyridin-4-yl)-3-chloro-5′-fluoro-2′-hydroxy-[1,1′-biphenyl]-4-yl)-3-methyl-1H-imidazol-2(3H)-one] |  |  | 30 to 300 | 0.01 to 1 |
| CN1CCN(c2ccc(-c3cc(F)cc(-c4cnc(OCCO)c(N5CCNCC5)c4)c3O)cc2Cl)C1=O [Example 392, 1-(3-chloro-5′-fluoro-2′-hydroxy-3′-(6-(2-hydroxyethoxy)-5-(piperazin-1-yl)pyridin-3-yl)-[1,1′-biphenyl]-4-yl)-3-methylimidazolidin-2-one] |  |  | 30 to 300 | 1 to 10 |
| CN1CCCC12CCN(c1cc(-c3cc(F)cc(-c4ccc(-n5ccn(C)c5=O)c(Cl)c4)c3O)cn(C)c1=O)C2 (stereo not shown) [Example 696, 5-(3′-chloro-5-fluoro-2-hydroxy-4′-(3-methyl-2-oxo-2,3-dihydro-1H-imidazol-1-yl)-[1,1′-biphenyl]-3-yl)-1-methyl-3-(1-methyl-1,7-diazaspiro[4.4]nonan-7-yl)pyridin-2(1H)-one] |  |  | 0.3 to 30 | 0.01 to 1 |
| Cn1ccn(-c2ccc(-c3cc(F)cc(-c4cccc(-c5ccc(CO)cc5)c4)c3O)cc2Cl)c1=O [Example 858] | 300 to 3000 | 10 to 100 |  |  |
